Seven compounds from article PMC3691235, “Discovery of a Novel Dual Fungal CYP51/Human 5-Lipoxygenase Inhibitor: Implications for Anti-Fungal Therapy” (PLoS ONE, 2013) can be followed below.

Where two headings read alike, the source gives them in different places.

For assay [1], the target named is T1, Human leukocyte 5-lipoxygenase (Homo sapiens, UniProt P09917).
T1 construct: made in house
T1 sequence (P09917 1-674): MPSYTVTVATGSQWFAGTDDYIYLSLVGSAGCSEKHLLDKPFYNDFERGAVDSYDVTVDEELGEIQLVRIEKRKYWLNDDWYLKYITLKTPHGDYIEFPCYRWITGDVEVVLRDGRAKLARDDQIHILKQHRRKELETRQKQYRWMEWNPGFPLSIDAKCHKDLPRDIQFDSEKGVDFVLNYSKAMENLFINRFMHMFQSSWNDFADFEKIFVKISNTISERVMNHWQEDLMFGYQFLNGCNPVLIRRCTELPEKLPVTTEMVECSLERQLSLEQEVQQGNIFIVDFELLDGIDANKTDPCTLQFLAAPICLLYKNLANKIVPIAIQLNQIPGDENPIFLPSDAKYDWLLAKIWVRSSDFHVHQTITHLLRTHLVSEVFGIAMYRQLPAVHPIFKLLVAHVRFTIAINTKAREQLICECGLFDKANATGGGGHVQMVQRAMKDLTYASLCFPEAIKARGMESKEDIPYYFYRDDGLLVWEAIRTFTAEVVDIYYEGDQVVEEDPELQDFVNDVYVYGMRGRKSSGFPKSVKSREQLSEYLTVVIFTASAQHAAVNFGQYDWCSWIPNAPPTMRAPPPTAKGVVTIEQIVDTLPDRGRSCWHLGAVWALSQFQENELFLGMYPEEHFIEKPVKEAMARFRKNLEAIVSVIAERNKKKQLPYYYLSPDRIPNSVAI
The assay is described as follows: Lipoxygenase UV-based inhibitor assay, 5-LOX. The assay is classed as biochemical. As for the experimental part: (§1) Human leukocyte 5-lipoxygenase was expressed as a non-tagged protein and used as a crude ammonium sulfate protein fraction, as published previously.
(§2) Inhibitor potencies were evaluated through use of the standard UV-based inhibitor assay. The initial rates were determined by following the formation of the conjugated diene product at 234 nm (ε = 25,000 M^−1 cm^−1) with a Perkin-Elmer Lambda 40 UV/Vis spectrophotometer at one substrate concentration and varying inhibitor concentrations. All reactions were 2 mL in volume and constantly stirred using a magnetic stir bar at room temperature (23°C), with the enzyme specific buffer conditions outlined in Table 1. The substrate used for the various isozymes was arachidonic acid (AA) for 5-LOX, 12-LOX, and 15-LOX-2 and linoleic acid (LA) for 15-LOX-1, where concentrations were quantitatively determined by allowing the enzymatic reaction to go to completion. IC50 values were obtained by determining the initial rate at various inhibitor concentrations and plotting them against inhibitor concentration, followed by a hyperbolic saturation curve fit. The data used for the saturation curves were performed in duplicate or triplicate, depending on the quality of the data. […] Inhibitors were stored at −20°C in DMSO. […] The solvent isotope effect of the inhibitor IC50 was investigated utilizing the same conditions and methods as stated above. The pH of the buffered D2O was determined as reported previously.

The target of assay [2] is T2, human platelet 12-lipoxygenase (12-LOX) (Homo sapiens, UniProt P18054).
T2 construct: His6 (N); made in house
T2 sequence (P18054 1-663): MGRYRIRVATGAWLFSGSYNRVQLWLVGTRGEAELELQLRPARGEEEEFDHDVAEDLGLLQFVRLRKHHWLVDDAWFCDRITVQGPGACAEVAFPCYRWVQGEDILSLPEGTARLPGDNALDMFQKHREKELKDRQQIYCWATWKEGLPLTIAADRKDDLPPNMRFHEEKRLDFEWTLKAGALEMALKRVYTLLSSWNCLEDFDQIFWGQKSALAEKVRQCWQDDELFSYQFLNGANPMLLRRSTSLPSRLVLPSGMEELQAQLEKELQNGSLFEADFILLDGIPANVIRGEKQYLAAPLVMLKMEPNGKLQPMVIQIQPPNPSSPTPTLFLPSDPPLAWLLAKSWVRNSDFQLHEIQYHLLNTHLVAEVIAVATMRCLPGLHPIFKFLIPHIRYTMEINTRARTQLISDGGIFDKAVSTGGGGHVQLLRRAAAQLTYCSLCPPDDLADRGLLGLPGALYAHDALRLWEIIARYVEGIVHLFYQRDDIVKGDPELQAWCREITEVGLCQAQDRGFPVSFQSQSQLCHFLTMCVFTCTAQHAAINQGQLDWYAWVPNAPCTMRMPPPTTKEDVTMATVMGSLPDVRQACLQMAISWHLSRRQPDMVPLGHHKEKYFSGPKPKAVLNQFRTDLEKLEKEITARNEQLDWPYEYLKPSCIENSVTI
Kind of assay: Lipoxygenase UV-based inhibitor assay, 12-LOX. The assay is classed as biochemical. To be noted: 10 µM AA, pH 8.0. As for the experimental part:
as §1, §2

The target in assay [3] is T3, human prostate epithelial 15-lipoxygenase-2 (15-LOX-2) (Homo sapiens, UniProt O15296).
T3 construct: His6 (N); made in house
T3 sequence (O15296 1-676): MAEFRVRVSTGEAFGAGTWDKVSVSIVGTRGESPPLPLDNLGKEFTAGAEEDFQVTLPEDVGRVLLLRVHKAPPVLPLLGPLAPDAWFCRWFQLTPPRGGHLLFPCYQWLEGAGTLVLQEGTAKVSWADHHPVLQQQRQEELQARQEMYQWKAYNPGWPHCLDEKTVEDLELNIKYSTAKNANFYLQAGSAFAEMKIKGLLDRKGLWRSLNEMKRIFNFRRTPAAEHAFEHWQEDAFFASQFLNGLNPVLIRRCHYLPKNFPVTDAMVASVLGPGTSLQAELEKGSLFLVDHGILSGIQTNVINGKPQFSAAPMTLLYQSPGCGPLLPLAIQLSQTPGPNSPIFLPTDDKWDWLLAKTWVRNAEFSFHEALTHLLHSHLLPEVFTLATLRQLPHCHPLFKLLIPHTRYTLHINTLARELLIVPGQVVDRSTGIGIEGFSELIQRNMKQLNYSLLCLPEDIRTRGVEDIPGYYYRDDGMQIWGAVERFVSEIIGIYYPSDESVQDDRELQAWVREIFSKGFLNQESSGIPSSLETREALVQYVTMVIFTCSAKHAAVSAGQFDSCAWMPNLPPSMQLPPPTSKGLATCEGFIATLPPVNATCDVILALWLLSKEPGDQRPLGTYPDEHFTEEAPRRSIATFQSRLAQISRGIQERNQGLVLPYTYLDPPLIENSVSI
The assay is described as follows: Lipoxygenase UV-based inhibitor assay, 15-LOX-2. The assay is classed as biochemical. To be noted: 30 µM AA, pH 7.5. As for the experimental part: as §1, §2

Assay [4] concerns LTB4 synthesis in whole human blood. The assay is described as follows: Human blood LTB4 inhibition assay. Type of assay: cell-based. To be noted: for inhibition at 10 µM: Homo sapiens, compounds at 10 µM, calcium ionophore stimulated, ELISA, error in parentheses. As for the experimental part:
Whole human blood was obtained from healthy volunteers from within the Student Health Center. These studies were approved by the UCSC Institutional Review Board (IRB) and informed consent was obtained from all donors before blood draw. The whole blood was dispensed in 150 µL samples followed by addition of inhibitor or control (vehicle, DMSO), and incubated for 15 min at 37°C. The mixture was then stimulated by introduction of the calcium ionophore, […], (freshly diluted from a 50 mM DMSO stock to 1.5 mM in Hanks balanced salt solution), and incubated for 30 min at 37°C. Samples were then centrifuged at 1,500 rpm (300 g) for 10 min at 4°C and the supernatant diluted between 20 and 50-fold (batch dependent) for LTB4 detection, using an ELISA detection kit (Cayman Chemicals Inc.).
For orientation: An ELISA detects its analyte on a solid surface through an enzyme-linked reagent.

Setting [5] is: UV-based assay, 10 µM AA, pH 7.3, crude enzyme, error = SD, read-out: 5-LOX IC50.
[6] abbreviates: UV-based assay, read-out: 5-LOX IC50.

As a reminder, the IC50 is the concentration at which inhibition is half-maximal. As for `N#Cc1ccc(-c2ccc(CNc3ccc(N4CCCCC4)cc3)o2)cc1` [Compound 14], the IC50 is 0.33 µM in assay [1] (setting [5]), above 150 µM in assay [2] and 10 µM in assay [3].
Broadly, the inhibition is the share of the control response that was lost under treatment. Regarding `CC(=O)N1CCN(c2ccc(NCc3ccc(-c4cccc(Cl)c4)o3)cc2)CC1` [Compound 13], in assay [4], the inhibition at 10 µM was around 50%. The “increase in 5-LOX IC50 in D2O relative to H2O (solvent isotope effect)” value in assay [1] (D2O buffer vs H2O) worked out at 2.4 fold. Besides, the IC50 was 0.52 µM in assay [1] (setting [5]), above 50 µM in assay [2] and above 50 µM in assay [3].
Regarding `CC(=O)N1CCN(c2ccc(OCC3COC(Cn4ccnc4)(c4ccc(Cl)cc4Cl)O3)cc2)CC1` (stereo not drawn) [ketoconazole, reference compound], the inhibition at 10 µM in assay [4] came to 25%. For the same compound, the IC50 in assay [1] is above 50 µM; in assay [2] it was above 150 µM; in assay [3] it was above 150 µM.
For the compound `Cc1cc(C2CCCCC2)n(O)c(=O)c1` [ciclopirox, reference compound], the inhibition at 10 µM in assay [4] came to 34%. Further, the IC50 in assay [1] (setting [5]) is 11 ± 1 µM; in assay [2] it was above 100 µM.
As to `CC(C)(C)OC(=O)N1CCN(c2ccc(NCc3ccc(-c4ccc(C#N)cc4)o3)cc2)CC1` [Compound 1], the inhibition at 10 µM in assay [4] was around 50%. Further, the results for the IC50 in assay [1] (setting [5]), in assay [2] and in assay [3] were 0.17 µM, above 150 µM and above 150 µM, respectively.
Consider `CC[C@](O)(c1nnc(NCc2ccc3c(-c4ccc(F)cc4)cc(=O)oc3c2)o1)C(F)(F)F` [setileuton, reference compound], for which, in assay [4], the inhibition at 10 µM came to 100%. Besides, the IC50 in assay [1] (setting [6]) was 0.06 ± 0.006 µM; in assay [2] it was above 150 µM; in assay [3], above 150 µM.
Take `CC(=O)N1CCN(c2ccc(NCC3COC(Cn4ccnc4)(c4ccc(Cl)cc4Cl)O3)cc2)CC1` (stereo not drawn) [ketaminazole (16), ketaminazole]: the inhibition at 10 µM in assay [4] was found to be 45%. Besides, in assay [4] (whole human blood), the “greater potency than ketoconazole in whole blood” value is listed as 2 fold. In addition, in assay [1], the “selectivity for 5-LOX over 12-LOX, 15-LOX-1, 15-LOX-2, COX-1 and COX-2” value is reported as “over 100 times”. Besides, the IC50 in assay [1] (setting [5]) is 0.7 µM; in assay [1] (setting [6]), 0.7 µM; in assay [2], above 150 µM; in assay [3] it was above 150 µM.
